{
  "source": "patent US12404283B2",
  "about": "“c-MYC mRNA translation modulators and uses thereof in the treatment of cancer” (Anima Biotech Inc., priority 2022, dated 2025)",
  "test_system": "c-Myc",
  "experiment": "c-Myc immunofluorescence assay",
  "type": "cell-based, human",
  "conditions": "A549 cells, 24 hours treatment, anti-c-Myc immunofluorescence",
  "outline": "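High-content imaging (20×) of PFA-fixed A549 cells immunostained for c-Myc with DAPI nuclei, after 24 h compound treatment at increasing concentrations. Per-cell c-Myc signal in identified cell regions was plotted against dose and fitted by logistic regression to give EC50.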",
  "data": [
    {"smiles": "CCN(CC)CCCNC(=O)c1ccc2c(c1)sc1nc(-c3ccc(C(=O)NC4CCNCC4)cc3)cn12", "note": "[compound 287, N-(3-(diethylamino)propyl)-2-(4-(piperidin-4-ylcarbamoyl)phenyl)benzo [d]imidazo[2,1-b]thiazole-7-carboxamide]", "values": [
      {"measurement": "Myc Efficacy (−LogEC50)", "value": "+ (+ >3 and <5)"}
    ]},
    {"smiles": "CCN(CC)CCCNC(=O)c1ccc2c(c1)sc1nc(-c3ccc(CNC)cc3)cn12", "note": "[compound 288, N-(3-(diethylamino)propyl)-2-(4-((methylamino)methyl)phenyl) benzo[d]imidazo[2,1-b]thiazole-7-carboxamide]", "values": [
      {"measurement": "Myc Efficacy (−LogEC50)", "value": "+++ (+++ ≥6)"}
    ]},
    {"smiles": "CCN(CC)CCCNC(=O)c1ccc2c(c1)sc1nc(-c3ccc(CN4CCCC4)cc3)cn12", "note": "[compound 289, N-(3-(diethylamino)propyl)-2-(4-(pyrrolidin-1-ylmethyl)phenyl)benzo[d] imidazo[2,1-b]thiazole-7-carboxamide]", "values": [
      {"measurement": "Myc Efficacy (−LogEC50)", "value": "+++ (+++ ≥6)"}
    ]},
    {"smiles": "NCc1ccc(-c2cn3c(n2)sc2cc(C(=O)NCCCN4CCCCC4)ccc23)cc1", "note": "[compound 290, 2-(4-(aminomethyl)phenyl)-N-(3-(piperidin-1-yl)propyl)benzo[d]imidazo [2,1-b]thiazole-7-carboxamide]", "values": [
      {"measurement": "Myc Efficacy (−LogEC50)", "value": "+++ (+++ ≥6)"}
    ]},
    {"smiles": "CCN(CC)CCCNC(=O)c1ccc2c(c1)sc1nc(-c3ccc(C(=O)NC)c(F)c3)cn12", "note": "[compound 291]", "values": [
      {"measurement": "Myc Efficacy (−LogEC50)", "value": "+ (+ >3 and <5)"}
    ]},
    {"smiles": "CCN(CC)CCCNC(=O)c1ccc2c(c1)sc1nc(-c3ccc(CNCCOC)cc3)cn12", "note": "[compound 292, N-(3-(diethylamino)propyl)-2-(4-(((2-methoxyethyl)amino)methyl)phenyl)benzo[d]imidazo[2,1-b]thiazole-7-carboxamide]", "values": [
      {"measurement": "Myc Efficacy (−LogEC50)", "value": "+++ (+++ ≥6)"}
    ]},
    {"smiles": "CCN(CC)CCCNC(=O)c1ccc2c(c1)sc1nc(-c3ccc([C@@H](NC)C(F)(F)F)cc3)cn12", "note": "[compound 293, (R)-N-(3-(diethylamino)propyl)-2-(4-(2,2,2-trifluoro-1-(methylamino)ethyl)phenyl) benzo[d]imidazo[2,1-b]thiazole-7-carboxamide]", "values": [
      {"measurement": "Myc Efficacy (−LogEC50)", "value": "++ (++ ≥5 and <6)"}
    ]},
    {"smiles": "CCN(CC)CCCNC(=O)c1ccc2c(c1)sc1nc(-c3ccc([C@H](NC)C(F)(F)F)cc3)cn12", "note": "[compound 294, (S)-N-(3-(diethylamino)propyl)-2-(4-(2,2,2-trifluoro-1-(methylamino)ethyl)phenyl) benzo[d]imidazo[2,1-b]thiazole-7-carboxamide]", "values": [
      {"measurement": "Myc Efficacy (−LogEC50)", "value": "++ (++ ≥5 and <6)"}
    ]},
    {"smiles": "CCN(CC)CCCNC(=O)c1ccc2c(c1)sc1nc(-c3ccc(C(=O)NCCNC)cc3)cn12", "note": "[compound 295, N-(3-(diethylamino)propyl)-2-(4-((2-(methylamino)ethyl)carbamoyl)phenyl)benzo[d] imidazo[2,1-b]thiazole-7-carboxamide]", "values": [
      {"measurement": "Myc Efficacy (−LogEC50)", "value": "++ (++ ≥5 and <6)"}
    ]},
    {"smiles": "CCN(CC)CCCNC(=O)c1ccc2c(c1)sc1nc(-c3ccc(C(=O)NC4CCNC4)cc3)cn12", "note": "(stereo not drawn) [compound 296, N-(3-(diethylamino)propyl)-2-(4-(pyrrolidin-3-ylcarbamoyl)phenyl)benzo[d] imidazo[2,1-b]thiazole-7-carboxamide]", "values": [
      {"measurement": "Myc Efficacy (−LogEC50)", "value": "+ (+ >3 and <5)"}
    ]},
    {"smiles": "CCN(CC)CCCNC(=O)c1ccc2c(c1)sc1nc(-c3ccc(C(=O)NCCN)cc3)cn12", "note": "[compound 297, 2-(4-((2-aminoethyl)carbamoyl)phenyl)-N-(3-(diethylamino)propyl)benzo [d]imidazo[2,1-b]thiazole-7-carboxamide]", "values": [
      {"measurement": "Myc Efficacy (−LogEC50)", "value": "+ (+ >3 and <5)"}
    ]},
    {"smiles": "CCN(CC)CCCNC(=O)c1ccc2c(c1)sc1nc(-c3ccc(CN)cc3F)cn12", "note": "[compound 298, 2-(4-(aminomethyl)-2-fluorophenyl)-N-(3-(diethylamino)propyl)benzo [d]imidazo[2,1-b]thiazole-7-carboxamide]", "values": [
      {"measurement": "Myc Efficacy (−LogEC50)", "value": "+++ (+++ ≥6)"}
    ]},
    {"smiles": "CCN(CC)CCCNC(=O)c1ccc2c(c1)sc1nc(-c3cccc(CN)c3)cn12", "note": "[compound 299, 2-(3-(aminomethyl)phenyl)-N-(3-(diethylamino)propyl) benzo[d]imidazo[2,1-b] thiazole-7-carboxamide]", "values": [
      {"measurement": "Myc Efficacy (−LogEC50)", "value": "++ (++ ≥5 and <6)"}
    ]},
    {"smiles": "CCN(CC)CCCNC(=O)c1ccc2c(c1)sc1nc(-c3ccc(CNC4CC4)cc3)cn12", "note": "[compound 300, 2-(4-((cyclopropylamino)methyl)phenyl)-N-(3-(diethylamino)propyl)benzo [d]imidazo[2,1-b]thiazole-7-carboxamide]", "values": [
      {"measurement": "Myc Efficacy (−LogEC50)", "value": "+++ (+++ ≥6)"}
    ]},
    {"smiles": "CNC(=O)c1ccc(-c2cn3c(n2)sc2cc(C(=O)N[C@@H]4CCCN(C)C4)ccc23)cc1", "note": "[compound 301, (R)-2-(4-(methylcarbamoyl)phenyl)-N-(1-methylpiperidin-3-yl)benzo[d]imidazo[2,1-b]thiazole-7-carboxamide]", "values": [
      {"measurement": "Myc Efficacy (−LogEC50)", "value": "+ (+ >3 and <5)"}
    ]},
    {"smiles": "CNC(=O)c1ccc(-c2cn3c(n2)sc2cc(C(=O)NCC[C@@H]4CCCN4C)ccc23)cc1", "note": "[compound 303, (S)-2-(4-(methylcarbamoyl)phenyl)-N-(2-(1-methylpyrrolidin-2-yl)ethyl)benzo[d]imidazo [2,1-b]thiazole-7-carboxamide]", "values": [
      {"measurement": "Myc Efficacy (−LogEC50)", "value": "+ (+ >3 and <5)"}
    ]},
    {"smiles": "O=C(NCCCN1CCCCC1)c1ccc2c(c1)sc1nc(-c3ccncc3)cn12", "note": "[compound 306, N-(3-(piperidin-1-yl)propyl)-2-(pyridin-4-yl)benzo[d]imidazo[2,1-b]thiazole-7-carboxamide]", "values": [
      {"measurement": "Myc Efficacy (−LogEC50)", "value": "++ (++ ≥5 and <6)"}
    ]},
    {"smiles": "CCN(CC)CCCNC(=O)c1ccc2c(c1)sc1nc(-c3ccc(N4CCOCC4)cc3)cn12", "note": "[compound 307, N-(3-(diethylamino)propyl)-2-(4-morpholinophenyl)benzo[d] imidazo[2,1-b]thiazole-7-carboxamide]", "values": [
      {"measurement": "Myc Efficacy (−LogEC50)", "value": "++ (++ ≥5 and <6)"}
    ]},
    {"smiles": "CCN(CC)CCCNC(=O)c1ccc2c(c1)sc1nc(-c3cccc(C4COC4)c3)cn12", "note": "[compound 308, N-(3-(diethylamino)propyl)-2-(3-(oxetan-3-yl)phenyl)benzo[d]imidazo [2,1-b]thiazole-7-carboxamide]", "values": [
      {"measurement": "Myc Efficacy (−LogEC50)", "value": "+ (+ >3 and <5)"}
    ]},
    {"smiles": "CNC(=O)c1ccc(-c2cn3c(n2)sc2cc(C(=O)NCCCN4CCC(F)CC4)ccc23)cc1", "note": "[compound 309, N-(3-(4-fluoropiperidin-1-yl)propyl)-2-(4-(methylcarbamoyl)phenyl) benzo[d]imidazo[2,1-b]thiazole-7-carboxamide]", "values": [
      {"measurement": "Myc Efficacy (−LogEC50)", "value": "++ (++ ≥5 and <6)"}
    ]},
    {"smiles": "CNC(=O)c1ccc(-c2cn3c(n2)sc2cc(C(=O)NCCCN4CCCC4)ccc23)cc1", "note": "[compound 310, 2-(4-(methylcarbamoyl)phenyl)-N-(3-(pyrrolidin-1-yl)propyl)benzo[d]imidazo [2,1-b]thiazole-7-carboxamide]", "values": [
      {"measurement": "Myc Efficacy (−LogEC50)", "value": "+ (+ >3 and <5)"}
    ]},
    {"smiles": "CNC(=O)c1ccc(-c2cn3c(n2)sc2cc(NC(=O)CCCN4CCCCC4)ccc23)cc1", "note": "[compound 312, N-methyl-4-(7-(4-(piperidin-1-yl)butanamido)benzo[d]imidazo[2,1-b]thiazol-2-yl)benzamide]", "values": [
      {"measurement": "Myc Efficacy (−LogEC50)", "value": "++ (++ ≥5 and <6)"}
    ]},
    {"smiles": "CCN(CC)CCCNC(=O)c1ccc2c(c1)sc1nc(-c3ccc(C4CCOCC4)cc3)cn12", "note": "[compound 314, N-(3-(diethylamino)propyl)-2-(4-(tetrahydro-2H-pyran-4-yl)phenyl)benzo[d]imidazo [2,1-b]thiazole-7-carboxamide]", "values": [
      {"measurement": "Myc Efficacy (−LogEC50)", "value": "+ (+ >3 and <5)"}
    ]},
    {"smiles": "O=C(NCCCN1CCCCC1)c1ccc2c(c1)sc1nc(-c3ccc(C4COC4)cc3)cn12", "note": "[compound 315, 2-(4-(oxetan-3-yl)phenyl)-N-(3-(piperidin-1-yl)propyl)benzo[d]imidazo [2,1-b]thiazole-7-carboxamide]", "values": [
      {"measurement": "Myc Efficacy (−LogEC50)", "value": "++ (++ ≥5 and <6)"}
    ]},
    {"smiles": "CNC(=O)c1ccc(-c2cn3c(n2)sc2cc(C(=O)NCCCN4CCCCC4)cnc23)cc1", "note": "[compound 317, 2-(4-(methylcarbamoyl)phenyl)-N-(3-(piperidin-1-yl)propyl)imidazo[2′,1′:2,3] thiazolo[4,5-b]pyridine-7-carboxamide]", "values": [
      {"measurement": "Myc Efficacy (−LogEC50)", "value": "+ (+ >3 and <5)"}
    ]},
    {"smiles": "CCN(CC)CCCNC(=O)c1ccc2c(c1)sc1nc(-c3ccc(C4(N)CC4)cc3)cn12", "note": "[compound 318, 2-(4-(1-aminocyclopropyl)phenyl)-N-(3-(diethylamino)propyl)benzo [d]imidazo[2,1-b]thiazole-7-carboxamide]", "values": [
      {"measurement": "Myc Efficacy (−LogEC50)", "value": "++ (++ ≥5 and <6)"}
    ]},
    {"smiles": "CNC(=O)c1ccc(-c2nc3sc4cc(C(=O)NCCCN5CCCCC5)ccc4n3n2)cc1", "note": "[compound 319, 2-(4-(methylcarbamoyl)phenyl)-N-(3-(piperidin-1-yl)propyl)benzo[4,5]thiazolo [3,2-b][1,2,4]triazole-6-carboxamide]", "values": [
      {"measurement": "Myc Efficacy (−LogEC50)", "value": "++ (++ ≥5 and <6)"}
    ]},
    {"smiles": "CNC(=O)c1ccc(-c2cn3c(n2)sc2cc(C(=O)NCCCN4CCC(F)CC4)ccc23)c(F)c1", "note": "[compound 320, 2-(2-fluoro-4-(methylcarbamoyl)phenyl)-N-(3-(4-fluoropiperidin-1-yl)propyl)benzo[d]imidazo [2,1-b]thiazole-7-carboxamide]", "values": [
      {"measurement": "Myc Efficacy (−LogEC50)", "value": "+++ (+++ ≥6)"}
    ]},
    {"smiles": "CNC(=O)c1ccc(-c2cn3c(n2)sc2cc(C(=O)NCCCN4CCCC4)ccc23)c(F)c1", "note": "[compound 321, 2-(2-fluoro-4-(methylcarbamoyl)phenyl)-N-(3-(pyrrolidin-1-yl)propyl)benzo[d]imidazo [2,1-b]thiazole-7-carboxamide]", "values": [
      {"measurement": "Myc Efficacy (−LogEC50)", "value": "++ (++ ≥5 and <6)"}
    ]},
    {"smiles": "C#CCCC1(CCNC(=O)c2ccc(-c3cn4c(n3)sc3cc(C(=O)NCCCN(CC)CC)ccc34)cc2)N=N1", "note": "[compound 322, 2-(4-((2-(3-(but-3-yn-1-yl)-3H-diazirin-3-yl)ethyl)carbamoyl)phenyl)-N-(3-(diethylamino)propyl) benzo[d]imidazo[2,1-b] thiazole-7-carboxamide]", "values": [
      {"measurement": "Myc Efficacy (−LogEC50)", "value": "+ (+ >3 and <5)"}
    ]}
  ]
}
